Test results: US20170101383A1, “DIAMINOTRIAZINE DERIVATIVES AS HERBICIDES” (BASF SE, priority 2014, published 2017)

What was measured:
Format in all cases: in vivo
Amaranthus retroflexus = assay: greenhouse pre-emergence treatment, AMARE; conditions: 1.000 kg/ha, scale 0 to 100
Description: (§1) The seeds of the test plants were sown separately for each species. For the pre-emergence treatment, the active ingredients, which had been suspended or emulsified in water, were applied directly after sowing by means of finely distributing nozzles. The containers were irrigated gently to promote germination and growth and subsequently covered with transparent plastic hoods until the plants had rooted. This cover caused uniform germination of the test plants, unless this had been impaired by the active ingredients. Depending on the species, the plants were kept at 10-25° C. or 20-35° C., respectively. The test period extended over 2 to 4 weeks. During this time, the plants were tended, and their response to the individual treatments was evaluated. Evaluation was carried out using a scale from 0 to 100. 100 means no emergence of the plants, or complete destruction of at least the aerial moieties, and 0 means no damage, or normal course of growth. A moderate herbicidal activity is given at values of at least 60, a good herbicidal activity is given at values of at least 70, and a very good herbicidal activity is given at values of at least 85. The plants used in the greenhouse experiments were of the following species: [table]

Viola arvensis [1] = assay: greenhouse post-emergence treatment, VIOAR; conditions: 0.500 kg/ha, scale 0 to 100
Description: (§2) The seeds of the test plants were sown separately for each species. For the post-emergence treatment, the test plants were first grown to a height of 3 to 15 cm, depending on the plant habit, and only then treated with the active ingredients which had been suspended or emulsified in water. For this purpose, the test plants were either sown directly and grown in the same containers, or they were first grown separately as seedlings and transplanted into the test containers a few days prior to treatment. Depending on the species, the plants were kept at 10-25° C. or 20-35° C., respectively. The test period extended over 2 to 4 weeks. During this time, the plants were tended, and their response to the individual treatments was evaluated. Evaluation was carried out using a scale from 0 to 100. 100 means no emergence of the plants, or complete destruction of at least the aerial moieties, and 0 means no damage, or normal course of growth. A moderate herbicidal activity is given at values of at least 60, a good herbicidal activity is given at values of at least 70, and a very good herbicidal activity is given at values of at least 85. The plants used in the greenhouse experiments were of the following species: [table]

Setaria faberi = assay: greenhouse pre-emergence treatment, SETFA; conditions: 1.000 kg/ha, scale 0 to 100
Description: as §1

Echinocloa crus-galli = assay: greenhouse pre-emergence treatment, ECHCG; conditions: 1.000 kg/ha, scale 0 to 100
Description: as §1

Stellaria media [2] = assay: greenhouse post-emergence treatment, STEME; conditions: 0.500 kg/ha, scale 0 to 100
Description: as §2

Setaria viridis = assay: greenhouse post-emergence treatment, SETVI; conditions: 0.500 kg/ha, scale 0 to 100
Description: as §2

Viola arvensis [3] = assay: greenhouse pre-emergence treatment, VIOAR; conditions: 0.500 kg/ha, scale 0 to 100
Description: as §1

Stellaria media [4] = assay: greenhouse pre-emergence treatment, STEME; conditions: 0.500 kg/ha, scale 0 to 100
Description: as §1

Lamium purpureum = assay: greenhouse pre-emergence treatment, LAMPU; conditions: 0.500 kg/ha, scale 0 to 100
Description: as §1

SMILES: Nc1nc(Nc2c(F)c(F)c(F)c(F)c2F)nc(OCC(F)(F)F)n1 [Example 3]
- herbicidal activity against AMARE (Amaranthus retroflexus): very good (a very good herbicidal activity is given at values of at least 85)
- herbicidal activity against VIOAR (Viola arvensis [1]): very good (a very good herbicidal activity is given at values of at least 85)
- herbicidal activity against SETFA (Setaria faberi): very good (a very good herbicidal activity is given at values of at least 85)
- herbicidal activity against ECHCG (Echinocloa crus-galli): very good (a very good herbicidal activity is given at values of at least 85)
- herbicidal activity against STEME (Stellaria media [2]): very good (a very good herbicidal activity is given at values of at least 85)
- herbicidal activity against SETVI (Setaria viridis): very good (a very good herbicidal activity is given at values of at least 85)

SMILES: COc1nc(N)nc(Nc2c(F)c(F)cc(F)c2F)n1 [Example 4]
- herbicidal activity against VIOAR (Viola arvensis [3]): very good (a very good herbicidal activity is given at values of at least 85)
- herbicidal activity against STEME (Stellaria media [4]): very good (a very good herbicidal activity is given at values of at least 85)
- herbicidal activity against LAMPU (Lamium purpureum): very good (a very good herbicidal activity is given at values of at least 85)
